Reference: PMC9820430, “New Affordable Methods for Large-Scale Isolation of Major Olive Secoiridoids and Systematic Comparative Study of Their Antiproliferative/Cytotoxic Effect on Multiple Cancer Cell Lines of Different Cancer Origins” (International Journal of Molecular Sciences, 2022)
Marks after values point to notes of the source that are not given here.

What was measured:
Assay in all cases: EdU incorporation cell proliferation assay, 24 h
Assay type in all cases: cell-based, human
SK-MEL-28 = conditions: for % Inhibition ± SE of cell proliferation: 24 h at EC50, normalized with the control; for % EdU +ve ± SE (S-phase cells): 24 h treatment at EC50 concentration
Description: (§1) For this purpose, ten cancer cell lines (i.e., MDA-MB 231, SK-BR-3, MCF-7, A2058, SK-MEL-28, AGS, HepG-2, PANC-1, H1299 and Hela) originating from breast, melanoma, stomach, hepatic, pancreatic, lung and cervical tumors were analyzed in parallel with control samples (i.e., the same cells treated only with 0.2% (v/v) DMSO). […] Subsequently, the treated cells were allowed to incorporate 5-ethynyl-2′-deoxyuridine (EdU) into replicating DNA according to the protocol described in detail in the Experimental Section. EdU, a thymidine analog, can be incorporated into DNA in vivo and detected later by using copper-catalyzed azide–alkyne cycloaddition (click reaction) without prior DNA denaturation. The pool of cells in the S phase can be then easily detected by fluorescence (FL) microscopy or by flow cytometry by analyzing the incorporation of EdU in replicating DNA of single cells. In this study, after EdU incorporation, the nuclei of the entire cell population were stained with Hoechst and imaged by confocal microscopy (Experimental Section). EdU-positive nuclei, marked by green FL, as well as the total number of nuclei, marked by blue FL, were enumerated by applying the Icy image analysis algorithm on the digital images acquired by confocal microscopy.
(§2) Human cancer cells were plated onto sterile glass coverslips (10-mm diameter, 5161063, ThermoFisher Scientific, Waltham, MA, USA) in 24-well tissue culture plates, at a density 5 times the density of cells seeded in 96-well plate and at a final medium volume of 500 μL. In order to obtain homogeneous plating, 250 μL of the medium was added directly to the wells already containing coverslips. Using a tip perpendicularly, coverslips were pressed in order to ensure their attachment to the bottom of the well. The cells were then seeded by adding 250 μL of single-cell suspension drop by drop following a cross path. Immediately after seeding, the plate was shaken back and forth at least ten times to achieve homogeneous plating. The cells were allowed to adhere overnight (~16 h) at 37 °C and 5% (v/v) CO2. The next day, a volume of 500 μL fresh medium was added to each well and the treatment with OOPs was initiated by adding directly to the wells 2 μL of OOPs from the 500× stock in DMSO and immediately mixed afterward by pipetting. […] Control cells were prepared under the same experimental conditions using DMSO instead of the OOPs’ solutions in DMSO at the same final concentration (0.2% (v/v) DMSO). […] Each condition was performed in duplicate. After treatment with the OOPs, live proliferating mammalian cells were labeled with 5-ethynyl-2’-deoxyuridine (EdU), a nucleoside analog of thymidine, using the Cell proliferation kit III (EdU-FM, PK-CA724-488FM, Promokine, Heidelberg, Germany). More specifically, a 20 μM EdU solution from a 10 mM stock in DMSO was prepared in a fresh culture medium. Culture supernatant was removed from treated cells to leave only 250 μL. An equal volume of 20 μM EdU solution was added and mixed with the medium to obtain a 10 μΜ EdU final concentration. The treated cells were incubated for the desired time of pulse length (2–4 h) under conditions optimal for each cell type depending on each cell line’s doubling time. Following incubation, cells were washed twice with PBS, then fixed with 4% (w/v) paraformaldehyde in PBS for 15 min at room temperature (RT), and subsequently washed twice with 3% (w/v) BSA for 5 min each time. Cells were permeabilized by incubation (20 min, RT, in the dark) with 0.5% (v/v) Triton-X 100 in PBS. Following permeabilization the cells were washed twice with 3% (w/v) BSA in PBS and incubated for 30 min with the reaction cocktail, according to the instructions of the Cell proliferation kit III (EdU-488; FM). After staining for replicating DNA, the cells were washed three times with 3% (w/v) BSA in PBS, and were then incubated (10 min, at RT) with Hoechst 33342 in PBS (1:10.000) to visualize all the nuclei. […]

SK-BR-3 = conditions: for % Inhibition ± SE of cell proliferation: 24 h at EC50, normalized with the control; for % EdU +ve ± SE (S-phase cells): 24 h treatment at EC50 concentration
Description: as §1, §2

MDA-MB 231 = conditions: for % Inhibition ± SE of cell proliferation: 24 h at EC50, normalized with the control; for % EdU +ve ± SE (S-phase cells): 24 h treatment at EC50 concentration
Description: as §1, §2

H1299 = conditions: for % Inhibition ± SE of cell proliferation: 24 h at EC50, normalized with the control; for % EdU +ve ± SE (S-phase cells): 24 h treatment at EC50 concentration
Description: as §1, §2

PANC-1 = conditions: for % EdU +ve ± SE (S-phase cells): 24 h treatment at EC50 concentration; for % Inhibition ± SE of cell proliferation: 24 h at EC50, normalized with the control
Description: as §1, §2

AGS = conditions: for % Inhibition ± SE of cell proliferation: 24 h at EC50, normalized with the control; for % EdU +ve ± SE (S-phase cells): 24 h treatment at EC50 concentration
Description: as §1, §2

Hela = conditions: for % Inhibition ± SE of cell proliferation: 24 h at EC50, normalized with the control; for % EdU +ve ± SE (S-phase cells): 24 h treatment at EC50 concentration
Description: as §1, §2

HepG-2 = conditions: for % EdU +ve ± SE (S-phase cells): 24 h treatment at EC50 concentration; for % Inhibition ± SE of cell proliferation: 24 h at EC50, normalized with the control
Description: as §1, §2

C/C=C(/C=O)[C@@H](CC=O)CC(=O)OCCc1ccc(O)c(O)c1 [compound 2, oleacein]
% Inhibition ± SE of cell proliferation (SK-MEL-28): 20.3 ± 4.0% | % EdU +ve ± SE (S-phase cells) (SK-MEL-28): 1.8 ± 0.4% | % Inhibition ± SE of cell proliferation (SK-BR-3): 16.2 ± 2.4% | % EdU +ve ± SE (S-phase cells) (SK-BR-3): 7.4 ± 0.7% | % Inhibition ± SE of cell proliferation (MDA-MB 231): 15.7 ± 2.4% | % EdU +ve ± SE (S-phase cells) (MDA-MB 231): 25.5 ± 4.1% | % Inhibition ± SE of cell proliferation (H1299): 47.8 ± 4.1% | % EdU +ve ± SE (S-phase cells) (H1299): 13.2 ± 3.5% | % EdU +ve ± SE (S-phase cells) (PANC-1): 37.6 ± 7.1% | % Inhibition ± SE of cell proliferation (AGS): 31.0 ± 3.5% | % EdU +ve ± SE (S-phase cells) (AGS): 14.7 ± 0.4% | % Inhibition ± SE of cell proliferation (Hela): 23.6 ± 7.9% | % EdU +ve ± SE (S-phase cells) (Hela): 21.7 ± 6.5%

C/C=C(/C=O)[C@@H](CC=O)CC(=O)OCCc1ccc(O)cc1 [compound 1, oleocanthal]
% EdU +ve ± SE (S-phase cells) (SK-MEL-28): 15.0 ± 4.8 ^a % | % EdU +ve ± SE (S-phase cells) (SK-BR-3): 9.5 ± 3.9% | % EdU +ve ± SE (S-phase cells) (MDA-MB 231): 29.1 ± 2.3% | % EdU +ve ± SE (S-phase cells) (H1299): 14.0 ± 1.9% | % EdU +ve ± SE (S-phase cells) (PANC-1): 23.6 ± 5.8% | % EdU +ve ± SE (S-phase cells) (AGS): 16.2 ± 4.4 ^a % | % EdU +ve ± SE (S-phase cells) (HepG-2): 26.4 ± 1.5%

ligstroside aglycone [4a,b]
% Inhibition ± SE of cell proliferation (SK-MEL-28): 4.7 ± 4.6 ^a % | % EdU +ve ± SE (S-phase cells) (SK-MEL-28): 20.8 ± 5.1 ^a % | % Inhibition ± SE of cell proliferation (SK-BR-3): 4.8 ± 3.1% | % EdU +ve ± SE (S-phase cells) (SK-BR-3): 18.8 ± 1.3% | % Inhibition ± SE of cell proliferation (MDA-MB 231): 8.2 ± 1.8% | % EdU +ve ± SE (S-phase cells) (MDA-MB 231): 33.0 ± 2.8% | % Inhibition ± SE of cell proliferation (PANC-1): 23.4 ± 2.7% | % EdU +ve ± SE (S-phase cells) (PANC-1): 22.1 ± 7.2% | % Inhibition ± SE of cell proliferation (AGS): 31.6 ± 2.6% | % EdU +ve ± SE (S-phase cells) (AGS): 14.0 ± 0.5% | % Inhibition ± SE of cell proliferation (HepG-2): 27.0 ± 1.1% | % EdU +ve ± SE (S-phase cells) (HepG-2): 12.0 ± 2.0% | % Inhibition ± SE of cell proliferation (Hela): 14.1 ± 6.3% | % EdU +ve ± SE (S-phase cells) (Hela): 31.2 ± 4.9%

COC(=O)C1=COC(C)[C@@H](C=O)[C@@H]1CC(=O)OCCc1ccc(O)c(O)c1 (mixture of isomers) [3a,b, oleuropein aglycone]
% Inhibition ± SE of cell proliferation (SK-MEL-28): 24.7 ± 0.7 ^a % | % EdU +ve ± SE (S-phase cells) (SK-MEL-28): 0.7 ± 0.3 ^a % | % Inhibition ± SE of cell proliferation (SK-BR-3): 16.9 ± 1.7% | % EdU +ve ± SE (S-phase cells) (SK-BR-3): 6.6 ± 3.5% | % Inhibition ± SE of cell proliferation (MDA-MB 231): 21.5 ± 2.1% | % EdU +ve ± SE (S-phase cells) (MDA-MB 231): 19.7 ± 3.1% | % Inhibition ± SE of cell proliferation (H1299): 29.1 ± 6.5% | % EdU +ve ± SE (S-phase cells) (H1299): 31.9 ± 5.9% | % Inhibition ± SE of cell proliferation (PANC-1): 23.6 ± 0.8% | % EdU +ve ± SE (S-phase cells) (PANC-1): 21.9 ± 5.3% | % Inhibition ± SE of cell proliferation (AGS): 28.9 ± 1.5 ^a % | % EdU +ve ± SE (S-phase cells) (AGS): 18.4 ± 1.5 ^a % | % Inhibition ± SE of cell proliferation (HepG-2): 28.4 ± 0.1% | % EdU +ve ± SE (S-phase cells) (HepG-2): 10.6 ± 3.1% | % Inhibition ± SE of cell proliferation (Hela): 24.3 ± 2.1% | % EdU +ve ± SE (S-phase cells) (Hela): 20.9 ± 3.5%
